From patent US8912120B2, “Herbicidal compositions comprising 4-amino-3-chloro-5-fluoro-6-(4-chloro-2-fluoro-3-methoxyphenyl) pyridine-2-carboxylic acid or a derivative thereof and synthetic auxin herbicides” (Dow AgroSciences, LLC., priority 2012, dated 2014)
Where two headings read alike, the source gives them in different places.

Experiments:
[1] = tested on: TRFRE; assay: Example V: postemergence herbicidal activity of mixtures in forage crops, TRFRE; format: in vivo, Trifolium repens (white clover); conditions: alone, foliar, approximately 21 days
Protocol: (§1) Seeds or root cuttings of the desired test plant species were planted in Sun Gro MetroMix® 306 planting mixture, which typically has a pH of 6.0 to 6.8 and an organic matter content of about 30 percent, in plastic pots with a surface area of 126.6 square centimeters (cm^2). […] The plants were grown for 14-60 days in a greenhouse with an approximate 14 hour photoperiod which was maintained at approximately 28° C. during the day and 24° C. during the night.
(§2) Spray solutions of the second herbicide or experimental compound mixtures were prepared by adding the stock solutions to the appropriate amount of dilution solution to form 12 mL spray solution with active ingredients in two-way combinations.

[2] = tested on: CENMA; assay: Example V: postemergence herbicidal activity of mixtures in forage crops, CENMA; format: in vivo, Centaurea maculosa (spotted knapweed); conditions: alone, foliar, approximately 21 days
Protocol: as §1, §2

[3] = tested on: SONAR; assay: Example V: postemergence herbicidal activity of mixtures in forage crops, SONAR; format: in vivo, Sonchus arvensis (field sowthistle); conditions: alone, foliar, approximately 21 days
Protocol: as §1, §2

[4] = tested on: SOOSS; assay: Example V: postemergence herbicidal activity of mixtures in forage crops, SOOSS; format: in vivo, Solidago L. spec. (goldenrod); conditions: alone, 70 gae/ha, foliar, approximately 21 days
Protocol: as §1, §2

[5] = tested on: CIRAR; assay: Example V: postemergence herbicidal activity of mixtures in forage crops, CIRAR; format: in vivo, Cirsium arvense (Canada thistle); conditions: alone, 70 gae/ha, foliar, approximately 21 days
Protocol: as §1, §2

[6] = tested on: ECHCG; assay: Example I: postemergence foliar-applied herbicidal mixtures, direct seeded rice, ECHCG
Protocol: (§7) The soil matrix was contained in plastic pots with a volume of 1 quart and a surface area of 83.6 square centimeters (cm^2). […] The plants were grown for 8-22 days in a greenhouse with an approximate 14 h photoperiod which was maintained at about 29° C. during the day and 26° C. during the night. Nutrients (Peters Excel® 15-5-15 5-Ca 2-Mg and iron chelate) were applied in the irrigation solution as needed and water was added on a regular basis. Supplemental lighting was provided with overhead metal halide 1000-Watt lamps as necessary. The plants were employed for testing when they reached the first through fourth true leaf stage.
(§8) Treatments consisted of the acid or esters of 4-amino-3-chloro-5-fluoro-6-(4-chloro-2-fluoro-3-methoxy-phenyl)pyridine-2-carboxylic acid (Compound A), each formulated as an SC (suspension concentrate), and various herbicidal components alone and in combination. Forms of compound A were applied on an acid equivalent basis.
(§9) For treatments comprised of formulated compounds, measured amounts of compounds were placed individually in 25 mL glass vials and diluted in a volume of 1.25% (v/v) Agri-Dex® crop oil concentrated to obtain 12× stock solutions. […] Application solutions were prepared by adding an appropriate amount of each stock solution (e.g., 1 mL) and diluted to the appropriate final concentrations with the addition of 10 mL of an aqueous mixture of 1.25% (v/v) crop oil concentrate so that the final spray solutions contained 1.25+/−0.05% (v/v) crop oil concentrate.
(§10) All stock solutions and applications solutions were visually inspected for compound compatibility prior to application. Spray solutions were applied to the plant material with an overhead Mandel track sprayer equipped with a 8002E nozzles calibrated to deliver 187 L/ha over an application area of 0.503 m^2 at a spray height of 18 to 20 inches (46 to 50 cm) above average plant canopy height. Control plants were sprayed in the same manner with the solvent blank.
(§11) The treated plants and control plants were placed in a greenhouse as described above and watered by sub-irrigation to prevent wash-off of the test compounds. After approximately 3 weeks, the condition of the test plants as compared with that of the untreated plants was determined visually and scored on a scale of 0 to 100 percent where 0 corresponds to no injury or growth inhibition and 100 corresponds to complete kill.
(§12) Colby's equation was used to determine the herbicidal effects expected from the mixtures (Colby, S. R. 1967. Calculation of the synergistic and antagonistic response of herbicide combinations. Weeds 15:20-22).
(§13) The following equation was used to calculate the expected activity of mixtures containing two active ingredients, A and B: Expected=A+B−(A×B/100)
(§14) A=observed efficacy of active ingredient A at the same concentration as used in the mixture.
(§15) B=observed efficacy of active ingredient B at the same concentration as used in the mixture.

[7] = tested on: ECHOR; assay: Example II: in-water applied herbicidal mixtures, transplanted paddy rice, ECHOR; format: in vivo, Echinochloa oryzoides (early watergrass); conditions: Echinochloa oryzoides; for pest or weed control at 70 g/ha: 70 gae/ha; for pest or weed control at 140 g/ha: 140 gae/ha
Protocol: (§3) The prepared mud was dispensed in 365 mL aliquots into 16-ounce (oz.) non-perforated plastic pots with a surface area of 86.59 square centimeters (cm^2) leaving a headspace of 3 centimeters (cm) in each pot Mud was allowed to dry overnight prior to planting or transplanting. Rice seeds were planted in Sun Gro MetroMix® 306 planting mixture, which typically has a pH of 6.0 to 6.8 and an organic matter content of about 30 percent, in plastic plug trays. Seedlings at the second or third leaf stage of growth were transplanted into 840 mL of mud contained in 32-oz. non-perforated plastic pots with a surface area of 86.59 cm^2 4 days prior to herbicide application. […] Nutrients were added as Osmocote® (19:6:12, N:P:K^+ minor nutrients) at 2 g per 16-oz. pot and 4 g per 32-oz. pot.
(§4) Applications were made by injecting with a pipetter appropriate amounts of the application solutions, individually and sequentially, into the aqueous layer of the paddy. Control plants were treated in the same manner with the solvent blank. Applications were made so that all treated plant material received the same concentrations of acetone and crop oil concentrate.

[8] = tested on: SCPJU; assay: Example II: in-water applied herbicidal mixtures, transplanted paddy rice, SCPJU; format: in vivo, Schoenoplectus juncoides (Japanese bulrush); conditions: 25 DAA
Protocol: as §3, §4

[9] = tested on: ECHCG; assay: Example II: in-water applied herbicidal mixtures, transplanted paddy rice, ECHCG; format: in vivo, Echinochloa crus-galli (barnyardgrass)
Protocol: as §3, §4

[10] = tested on: ECHCO; assay: Example I: postemergence foliar-applied herbicidal mixtures, direct seeded rice, ECHCO
Protocol: as §7, §8, §9, §10, §11, §12, §13, §14, §15

[11] = tested on: SCPMA; assay: Example II: in-water applied herbicidal mixtures, transplanted paddy rice, SCPMA; format: in vivo
Protocol: as §3, §4

[12] = tested on: CYPDI; assay: Example I: postemergence foliar-applied herbicidal mixtures, direct seeded rice, CYPDI; format: in vivo, Cyperus difformis (smallflower umbrella sedge)
Protocol: as §7, §8, §9, §10, §11, §12
(§16) The following equation was used to calculate the expected activity of mixtures containing two active ingredients, A and B: Expected=A+B−(A×B/100) […]

[13] = tested on: LEFCH; assay: Example I: postemergence foliar-applied herbicidal mixtures, direct seeded rice, LEFCH; format: in vivo, Leptochloa chinensis (Chinese sprangletop); conditions: 280 gae/ha
[14] = tested on: LEFCH; assay: Example II: in-water applied herbicidal mixtures, transplanted paddy rice, LEFCH; format: in vivo, Leptochloa chinensis (Chinese sprangletop); conditions: 25 DAA; 70 gae/ha
Protocol: as §3, §4

[15] = tested on: ELEIN; assay: Example III: postemergence foliar-applied herbicidal mixtures, weeds common to row crops such as corn and soybeans (greenhouse), ELEIN; format: in vivo, Eleusine indica (goosegrass); conditions: 17 DAA
Protocol: (§5) The plants were grown for 7-31 days (d) in a greenhouse with an approximate 15 hour (h) photoperiod which was maintained at about 23-29° C. during the day and 22-28° C. during the night.

[16] = tested on: SORHA; assay: Example III: postemergence foliar-applied herbicidal mixtures, row crop weeds, SORHA; format: in vivo, Sorghum halepense (johnsongrass); conditions: 13 DAA; 7.5 gae/ha
Protocol: as §5

[17] = tested on: CYPIR; assay: Example II: in-water applied herbicidal mixtures, transplanted paddy rice, CYPIR; format: in vivo, Cyperus iria L. (flatsedge; conditions: 21 DAA; 560 gai/ha
[18] = tested on: POLCO; assay: Example IV: postemergence foliar-applied herbicidal mixtures, cereal crops, POLCO; format: in vivo, Polygonum convolvulus (wild buckwheat); conditions: alone, 140 gai/ha, foliar, 20-22 days
Protocol: as §1, with “Seeds” for “Seeds or root cuttings”, “MetroMix” for “MetroMix®”, “103.2” for “126.6”, “7-36” for “14-60”, “about 18°” for “approximately 28°”, “17°” for “24°”
(§6) Spray solutions of the second cereal herbicide and experimental compound mixtures were prepared by adding the stock solutions to the appropriate amount of dilution solution to form 12 mL spray solution with active ingredients in two- and three-way combinations.

[19] = tested on: ISCRU; assay: Example I: postemergence foliar-applied herbicidal mixtures, direct seeded rice, ISCRU; format: in vivo, Ischaemum rugosum (saramollagrass)
Protocol: as §7, §8, §9, §10, §11, §12, §13, §14, §15

[20] = tested on: DIGSA; assay: Example I: postemergence foliar-applied herbicidal mixtures, direct seeded rice, DIGSA; conditions: 560 gai/ha
Protocol: as §7, §8, §9, §10, §11, §12, §13, §14, §15

[21] = tested on: AMARE; assay: Example IV: postemergence foliar-applied herbicidal mixtures, weed control in cereal crops in the greenhouse, AMARE; format: in vivo, Amaranthus retroflexus (redroot pigweed); conditions: alone, 140 gai/ha, 20-22 days
Protocol: as §1, with “Seeds” for “Seeds or root cuttings”, “MetroMix” for “MetroMix®”, “103.2” for “126.6”, “7-36” for “14-60”, “about 18°” for “approximately 28°”, “17°” for “24°”
as §6

[22] = tested on: CYPES; assay: Example I: postemergence foliar-applied herbicidal mixtures, direct seeded rice, CYPES; format: in vivo, Cyperus esculentus (yellow nutsedge)
Protocol: as §7, §8, §9, §10, §11, §12, §16

[23] = tested on: CYPIR; assay: Example I: postemergence foliar-applied herbicidal mixtures, direct seeded rice, CYPIR; format: in vivo, Cyperus iria (rice flatsedge)
[24] = tested on: VIOTR; assay: Example IV: postemergence foliar-applied herbicidal mixtures, cereal crops, VIOTR; format: in vivo, Viola tricolor (wild pansy); conditions: alone, 140 gai/ha, foliar, 20-22 days
Protocol: as §1, with “Seeds” for “Seeds or root cuttings”, “MetroMix” for “MetroMix®”, “103.2” for “126.6”, “7-36” for “14-60”, “about 18°” for “approximately 28°”, “17°” for “24°”
as §6

[25] = 70 gae/ha (Compound A Benzyl Ester rate not given)
[26] = 140 gae/ha (Compound A Benzyl Ester rate not given)
[27] = 456 h, read-out: Visual Weed Control (%) Obs, 19 DAA
[28] = 600 h, read-out: Visual Weed Control (%) Obs, 25 DAA

CCCCCCC(C)OC(=O)COc1nc(F)c(Cl)c(N)c1Cl (stereo not drawn) [Fluroxypyr ME]
TRFRE Obs (observed value) ([1]; 35 gae/ha): 15% | TRFRE Obs (observed value) ([1]; 70 gae/ha): 20% | CENMA Obs (observed value) ([2]; 35 gae/ha): 0% | CENMA Obs (observed value) ([2]; 70 gae/ha): 0% | SONAR Obs (observed value) ([3]; 35 gae/ha): 0% | SONAR Obs (observed value) ([3]; 70 gae/ha): 15% | SOOSS Obs (observed value) [4]: 50% | CIRAR Obs (observed value) [5]: 10%

CCCCCCC(C)OC(=O)COc1nc(F)c(Cl)c(N)c1Cl (stereo not drawn) [Fluroxypyr MHE, 1-methylheptyl 2-[(4-amino-3,5-dichloro-6-fluoro-2-pyridinyl)oxy]acetate, reference compound]
Visual Weed Control (%) - 21 DAA ECHCG Obs ([6]; 70 gae/ha): 0% | Visual Weed Control (%) - 21 DAA ECHCG Obs [6, 25]: 0% | Visual Weed Control (%) - 21 DAA ECHCG Obs ([6]; 140 gae/ha): 0% | Visual Weed Control (%) - 21 DAA ECHCG Obs [6, 26]: 0% | Visual Weed Control (%) - 19 DAA ECHCG Obs ([6]; 280 gae/ha): 25% | pest or weed control at 70 g/ha [7, 27]: 0% | pest or weed control at 140 g/ha [7, 27]: 0% | pest or weed control at 70 g/ha [7, 28]: 0% | pest or weed control at 140 g/ha [7, 28]: 0% | Visual Weed Control (%) Obs ([8]; 70 gae/ha): 20% | Visual Weed Control (%) Obs ([8]; 140 gae/ha): 30% | Visual Weed Control (%) Obs ([9]; 19 DAA, 70 gae/ha): 0% | Visual Weed Control (%) Obs ([9]; 19 DAA, 140 gae/ha): 0% | Visual Weed Control (%) Obs ([9]; 19 DAA, 280 gae/ha): 0% | Visual Weed Control (%) Obs ([9]; 25 DAA, 140 gae/ha): 0% | Visual Weed Control (%) - 21 DAA ECHCO Obs ([10]; 70 gae/ha): 0% | Visual Weed Control (%) - 21 DAA ECHCO Obs [10, 25]: 0% | Visual Weed Control (%) - 21 DAA ECHCO Obs ([10]; 140 gae/ha): 0% | Visual Weed Control (%) - 21 DAA ECHCO Obs [10, 26]: 0% | Visual Weed Control (%) Obs ([11]; 22 DAA, 149 gae/ha): 30% | Visual Weed Control (%) - 21 DAA CYPDI Obs ([12]; 70 gae/ha): 15% | Visual Weed Control (%) - 21 DAA CYPDI Obs ([12]; 140 gae/ha): 80% | Visual Weed Control (%) - 19 DAA LEFCH Obs [13]: 28% | Visual Injury (%) Obs [14]: 20% | Visual Weed Control (%) Obs [14]: 20%

COc1c(Cl)ccc(-c2cc(N)c(Cl)c(C(=O)[O-])n2)c1F.[K+] [Halauxifen K^+ Salt]
Visual Weed Control (%) Obs ([15]; 3.75 gae/ha): 30% | Visual Weed Control (%) Obs ([15]; 7.5 gae/ha): 40% | Visual Weed Control (%) Obs ([15]; 15 gae/ha): 50% | Visual Weed Control (%) Obs [16]: 0%

O=C(O)c1c(Cl)ccc2cc(Cl)cnc12 [Quinclorac, 3,7-dichloro-8-quinolinecarboxylic acid]
Visual Weed Control (%) - 21 DAA ECHCG Obs ([6]; 70 gai/ha): 15% | Visual Weed Control (%) - 21 DAA ECHCG Obs ([6]; 140 gai/ha): 30% | Visual Weed Control (%) - 21 DAA ECHCG Obs ([6]; 280 gai/ha): 30% | pest or weed control at 560 g/ha ([7]; 480 h, 20 DAA, 560 gai/ha, read-out: Visual Weed Control (%) Obs): 20% | Visual Weed Control (%) Obs [17]: 0% | POLCO Ob (observed value) [18]: 3% | Visual Weed Control (%) - 21 DAA ISCRU Obs ([19]; 140 gai/ha): 0% | Visual Weed Control (%) - 21 DAA ISCRU Obs ([19]; 280 gai/ha): 0% | Visual Weed Control (%) - 21 DAA ISCRU Obs ([19]; 560 gai/ha): 0% | Visual Weed Control (%) Obs ([11]; 20 DAA, 560 gai/ha): 0% | Visual Weed Control (%) - 20 DAA DIGSA Obs [20]: 8% | Visual Weed Control (%) - 21 DAA DIGSA Obs [20]: 8% | AMARE Ob (observed value) [21]: 27% | Visual Weed Control (%) - 21 DAA CYPES Obs ([22]; 70 gai/ha): 0% | Visual Weed Control (%) - 21 DAA CYPES Obs ([22]; 140 gai/ha): 0% | Visual Weed Control (%) - 21 DAA CYPES Obs ([22]; 280 gai/ha): 0% | Visual Weed Control (%) - 21 DAA CYPIR Obs ([23]; 70 gai/ha): 0% | Visual Weed Control (%) - 21 DAA CYPIR Obs ([23]; 140 gai/ha): 0% | Visual Weed Control (%) - 21 DAA CYPIR Obs ([23]; 280 gai/ha): 0% | VIOTR Ob (observed value) [24]: 0%
